US10736859B2, “Eutectic formulations of cyclobenzaprine hydrochloride and amitriptyline hydrochloride” (Tonix Pharma Holdings Limited, priority 2013, dated 2020)
“Also recorded” adds a separate entry of the source.

Columns and labels:
Format in all cases: physicochemical
[1] = DSC, FT-IR/ATR and XRPD compatibility of Cyclobenzaprine HCl with additional excipients, mixed (A) and milled (B) 1:1 mixtures (Example 2); settings: for Interactions between Cyclobenzaprine HCl and excipients, Mixture 1:1 (mixed): mixture A, mechanical mixing only; for Interactions between Cyclobenzaprine HCl and excipients, Mixture 1:1 (mixed) / Interactions between Cyclobenzaprine HCl and excipients, Mixture 1:1 (milled): DSC; for Interactions between Cyclobenzaprine HCl and excipients, Mixture 1:1 (milled): mixture B, ground in agate mortar
Description: As described above, thermal analytical techniques were further used to assess the compatibility of a drug product (tablet) containing Cyclobenzaprine HCl (API). The compatibility assessment was carried out between the API and additional excipients in a 1:1 ratio. The 1:1 API-excipient mixtures were formed in two different ways: first, by mixing only, and second, by strong milling in an agate mortar. The thermal behavior recorded in the two different mixtures were compared with those of the single components. On the basis of thermal events recorded for each component and for the mixtures, the analyses were carried out by investigating the meanings of the peaks recorded by differential scanning calorimetry (DSC) in mixtures between the API and the excipients. Furthermore, in order to define the nature of the interaction, the Fourier Transformate Infra Red Spectroscopy with Total Attenuated Reflectance (FT-IR/ATR) and X-ray powder diffraction (XRPD) of some samples (API, excipient, and mixed and milled mixtures) was carried out and compared.
Aliquots of API and each excipient were weighed in a ratio of 1:1 and ground in an agate mortar. Then, the homogeneous mixtures were analyzed. These sample mixtures were labeled “B”, while the mechanical-only mixtures were labeled “A.”
(§1) The DSC heating curves were obtained by TA 821 DSC Mettler instrument under the following conditions: • Heating rate: 10° C./min • Ambient: Nitrogen 30 mL/min • Sample holder: normal open aluminum pan • Temperature range: from 25° C. to 250° C. • Instrument calibration: Indium sample purity 99.999% Fourier Transformate Infra Red Spectroscopy with Total Attenuated Reflectance (FT-IR/ATR)
The FT-IR spectra were collected with a Perkin Elmer spectrum Two instrument with air as background and 4 cm^−1 resolution.
X-ray powder diffraction (XRPD) tests were performed with the ULTIMA IV instrument (Rigaku), laying the sample on a static sample holder. The X-ray focusing slit has a variable width, interlocked with the q value. The X-ray tube has a Copper target, with a current intensity of 40 mA and a voltage of 40 kV. Radiation was generated by the Cockcroft-Walton method, and was constituted by Kα1 (1.540562 Å) and Kα2 (1.544398 Å). The analytical conditions were: • Fixed Time; sampling width 0.02 deg, scanning rate 1.3 s/step, 2 q range 3.35 deg and sample holder; amorphous glass equiangular 9200/2G, 0.2 mm deep. The sample was pressed with a glass plate.

[2] = DSC compatibility of Amitriptyline HCl with excipients, 1:1 milled mixtures (Example 4); settings: Amitriptyline HCl + excipient 1:1, milled in agate mortar
Description: Thermal analytical techniques were used to assess the compatibility of the drug product amitriptyline HCl. The compatibility assessment was carried out between the API and the excipients in a 1:1 ratio. On the basis of thermal events recorded for each component and for the mixtures, the analyses were carried out by investigating the peaks recorded by DSC in mixtures between API and the excipients. Differences in thermal profiles between the single compound and the related mixtures were obtained after milling the products in an agate mortar.
DSC was performed substantially as described in Examples 1 and 2. The following raw materials were used: • Amitriptyline HCl • Sodium stearyl fumarate • Stearic acid • Glycerol dibehenate • Magnesium stearate • Pearlitol flash • Pearlitol 200 SO/Mannitol • Unipure DW/Com starch pregelatinized • Crospovidone-Kollidon CL • Silicon Colloidal/Aerosil 200 • Sodium phosphate dibasic • Sodium bicarbonate • Sodium carbonate • Sodium Phosphate dodecahydrate • Sodium Phosphate anhydrous.

[3] = DSC compatibility of Cyclobenzaprine HCl (API) with excipients, milled mixtures (Example 1); settings: for Excipient reactions with API, Mixture 1:1: Cyclobenzaprine HCl + excipient 1:1, ground in agate mortar; for Excipient reactions with API, Mixture in formulation ratio: Cyclobenzaprine HCl + excipient in formulation ratio
Description: Thermal analytical techniques were used to assess the compatibility of a drug product (tablet) containing Cyclobenzaprine HCl (API). The compatibility assessment was carried out between the API and a number of possible excipients in a 1:1 ratio. Based on the thermal events recorded for each component and for the mixtures, the analyses were carried out by investigating the peaks recorded by differential scanning calorimetry (DSC) in mixture between API and the excipients. Differences in thermal profiles between the single compound and the related mixture obtained after milling the products in an agate mortar were evaluated. Stability and compatibility also were also assessed on the final drug product after stress conditions at 40° C. and 50° C. for one month.
A “formulation ratio” mixture was made with the following composition: 2.40 mg Cyclobenzaprine HCl, 31.55 mg Mannitol and Maize starch, 2.00 Crospovidone, 0.50 mg colloidal silica, 0.050 mg Sodium Stearyl Fumarate, and 1.05 Potassium hydrogen phosphate.
Aliquots of API and each excipient were weighed in a ratio of 1:1 (unless specified otherwise) and ground in an agate mortar. The homogeneous mixtures then were analyzed.
as §1, with “with a” for “by”, “99.999%” for “99.999% Fourier Transformate Infra Red Spectroscopy with Total Attenuated Reflectance (FT-IR/ATR)”

[4] = listed as sodium phosphate anhydrous
[5] = listed as Sodium Stearyl fumarate, fumarate
[6] = listed as trisodium citrate dihydrate, citrate dihydrate
[7] = listed as Trisodium Citrate anhydrous
[8] = listed as sodium phosphate dihydrate, Sodium phosphate dihydrate

With O=P([O-])([O-])O.[Na+].[Na+] [Di Sodium phosphate anhydrous] the “Interactions between Cyclobenzaprine HCl and excipients, Mixture 1:1 (mixed)” value [1] was “Low chemical”, the “Interactions between Cyclobenzaprine HCl and excipients, Mixture 1:1 (mixed)” value [1, 4] was “physical interaction” and the “Interactions between Cyclobenzaprine HCl and excipients, Mixture 1:1 (milled)” value [1] was “Low chemical”. The “Interactions between Cyclobenzaprine HCl and excipients, Mixture 1:1 (milled)” value [1, 4] was “physical interaction” and the “Interactions between API and excipients, Mixture in formulation (1:1 ratio)” value ([2]; listed as Sodium phosphate anhydrous) was “No physical interaction”.
For CCCCCCCCCCCCCCCCCCOC(=O)/C=C/C(=O)[O-].[Na+] [Sodium stearyl fumarate], the “Interactions between API and excipients, Mixture in formulation (1:1 ratio)” value ([2]; fumarate) was “Physical interaction”, the “Interactions between API and excipients, Mixture in formulation (1:1 ratio)” value [2, 5] was “physical interaction” and the “Excipient reactions with API, Mixture 1:1” value ([3]; fumarate) was “Physical interaction”. The “Excipient reactions with API, Mixture 1:1” value [3, 5] was “physical interaction”, the “Excipient reactions with API, Mixture in formulation ratio” value ([3]; fumarate) was “No interaction” and the “Excipient reactions with API, Mixture in formulation ratio” value [3, 5] was “small physical interaction”.
With Magnesium stearate the “Interactions between API and excipients, Mixture in formulation (1:1 ratio)” value [2] was “small physical interaction”.
For O.O.O=C([O-])CC(O)(CC(=O)[O-])C(=O)[O-].[Na+].[Na+].[Na+] [Trisodium citrate dihydrate], the “Interactions between Cyclobenzaprine HCl and excipients, Mixture 1:1 (mixed)” value ([1]; citrate dihydrate) was “Chemical”, the “Interactions between Cyclobenzaprine HCl and excipients, Mixture 1:1 (mixed)” value [1, 6] was “physico-chemical interaction” and the “Interactions between Cyclobenzaprine HCl and excipients, Mixture 1:1 (milled)” value ([1]; citrate dihydrate) was “Chemical”. For the same compound, the “Interactions between Cyclobenzaprine HCl and excipients, Mixture 1:1 (milled)” value [1, 6] was “physico-chemical interaction”.
With O=C([O-])CC(O)(CC(=O)[O-])C(=O)[O-].[Na+].[Na+].[Na+] [Tri Sodium Citrate anhydrous, Trisodium citrate anhydrous] the “Chemical acid-base reaction by FT-IR/ATR” value ([1]; mixture A 1:1 with Cyclobenzaprine HCl, room temperature, chlorohydrate band 3000-2000 cm-1) was “no chemical acid-base reaction had occurred”, the “Interactions between Cyclobenzaprine HCl and excipients, Mixture 1:1 (mixed)” value [1] was “Physical” and the “Interactions between Cyclobenzaprine HCl and excipients, Mixture 1:1 (mixed)” value [1, 7] was “physical complex melting at a lower temperature”. For the same compound, the “Interactions between Cyclobenzaprine HCl and excipients, Mixture 1:1 (milled)” value [1] was “Physical” and the “Interactions between Cyclobenzaprine HCl and excipients, Mixture 1:1 (milled)” value [1, 7] was “physical complex melting at lower temperature”.
In the case of CCCCCCCCCCCCCCCCCCCCCC(=O)OCC(CO)OC(=O)CCCCCCCCCCCCCCCCCCCCC (centres unmarked) [Glycerol dibehenate], the “Interactions between API and excipients, Mixture in formulation (1:1 ratio)” value [2] is reported as “No interaction” and the “Interactions between API and excipients, Mixture in formulation (1:1 ratio)” value ([2]; listed as glycerol dibehenate) is reported as “small physical interaction”.
In the case of CCCCCCCCCCCCCCCCCC(=O)O [Stearic acid], the “Interactions between API and excipients, Mixture in formulation (1:1 ratio)” value [2] is reported as “small physical interaction; also recorded: No interaction”.
In the case of O=P([O-])([O-])O.[Na+].[Na+] [Sodium phosphate dibasic], the “Interactions between API and excipients, Mixture in formulation (1:1 ratio)” value [2] is reported as “Physical interaction”.
In the case of O=C([O-])[O-].[Na+].[Na+] [Sodium carbonate], the “Interactions between API and excipients, Mixture in formulation (1:1 ratio)” value [2] is reported as “small physical interaction; also recorded: No interaction”.
For Sodium Phosphate dodecahydrate, the “Interactions between API and excipients, Mixture in formulation (1:1 ratio)” value [2] was “physical/chemical interaction”.
In the case of O=P([O-])([O-])O.[K+].[K+] [Potassium phosphate dibasic, dipotassium hydrogen phosphate], the “Excipient reactions with API, Mixture 1:1” value [3] is reported as “Acid - base interaction”, the “Excipient reactions with API, Mixture 1:1” value ([3]; listed as Potassium phosphate bibasic) is reported as “chemical interaction (acid-base)” and the “Excipient reactions with API, Mixture in formulation ratio” value [3] is reported as “Low chemical”. The “Excipient reactions with API, Mixture in formulation ratio” value ([3]; listed as K2HPO4) was “small interaction”.
In the case of O.O.O.O.O.O.O.O=P([O-])([O-])O.[Na+].[Na+] [Di Sodium phosphate heptahydrate], the “Interactions between Cyclobenzaprine HCl and excipients, Mixture 1:1 (mixed)” value [1] is reported as “Chemical” and the “Interactions between Cyclobenzaprine HCl and excipients, Mixture 1:1 (milled)” value [1] is reported as “Chemical”.
In the case of O.O.O=P([O-])([O-])O.[Na+].[Na+] [Di Sodium phosphate di hydrate, Di Sodium phosphate dihydrate], the “Interactions between Cyclobenzaprine HCl and excipients, Mixture 1:1 (mixed)” value ([1]; Sodium phosphate dihydrate) is reported as “Chemical”, the “Interactions between Cyclobenzaprine HCl and excipients, Mixture 1:1 (mixed)” value [1, 8] is reported as “a physical interaction and partial solubilization” and the “Interactions between Cyclobenzaprine HCl and excipients, Mixture 1:1 (milled)” value ([1]; Sodium phosphate dihydrate) is reported as “Chemical”. The “Interactions between Cyclobenzaprine HCl and excipients, Mixture 1:1 (milled)” value [1, 8] was “physical interaction”.
For OC[C@@H](O)[C@@H](O)[C@H](O)[C@@H](O)CO [Sorbitol], the “Interactions between Cyclobenzaprine HCl and excipients, Mixture 1:1 (mixed)” value [1] was “Chemical”, the “Interactions between Cyclobenzaprine HCl and excipients, Mixture 1:1 (mixed)” value ([1]; listed as sorbitol) was “interaction was observed, due to the solubilization of API by sorbitol” and the “Interactions between Cyclobenzaprine HCl and excipients, Mixture 1:1 (milled)” value [1] was “Chemical”. For the same compound, the “Interactions between Cyclobenzaprine HCl and excipients, Mixture 1:1 (milled)” value ([1]; listed as sorbitol) was “interaction was observed, due to the solubilization of API by sorbitol”.
